Test results reported in patent EP0166726B1, “10-ETHYL-8,10-DIDEAZAMINOPTERINS” (SRI INTERNATIONAL, priority 1983, dated 1985).

Test system: L-1210 leukemia cells
Experiment: L-1210 murine leukemia assay (increase in median life span)
Format: in vivo, Mice
Conditions: for ILS%: increase in median life span vs untreated controls, at LD10 dose, 5 injections every other day starting one day after transplantation of 10^6 tumor cells/mouse; for LD10 Dose: mice, injected once per day every other day, total of 5 injections; for Cells Remaining: number of neoplastic cells remaining after treatment at LD10 dose, 10^6 tumor cells/mouse transplanted
Experimental: This is a standard assay that is used to evaluate the efficacy of compounds as antineoplastic agents for treating humans. The assay is described by D. J. Hitchinson, D. C. Robinson, D. Martin, O. L. Ittenson and Dillenberg, Journal Cancer Research, (1962) 22:57-72. It is a procedure for evaluating a compound for increase in median life span in treated animals and unteated controls both infected with L-1210 leukemia cells. […] Mice are injected once per day every other day for a total of 5 injections starting one day after transplantation of 10^6 tumor cells/mouse. The results of this assay with several, 8,10-dideazaminopterin analogs were as follows:
It is apparent from the above results that the life spans of the mice were increased considerably by administration of the invention compound and that this compound has surprising activity when compared to the non-alkylated and n-propyl or methyl analogs. The % ILS data represent comparisons of log values, and thus differences in the % ILS which appear minor mask large differences in cytotoxic activity. Thus, as shown, the ethyl derivative is 40 times as effective as the unsubstituted compound and 100 times as effective as the n-propyl derivative in terms of reducing the number of neoplastic cells; i.e., e.g., the number of cells remaining after 10-ethyl analog treatment is only 1/40 and 1/100 of that remaining from treatment with the above analogs, respectively. The assay and these conclusions are described by Schabel, F. M., Symposium on Proliferation and Spread of Neoplastic Cells, M. D. Anderson, Tumor Institute, Houston, Texas (1968), p. 379 ff.

Compound	ILS%	LD10 Dose [Mg/Kg]	Cells Remaining	times as effective as the unsubstituted compound in terms of reducing the number of neoplastic cells (relative to 8,10-dideazaminopterin, ratio of cells remaining) [times]	times as effective as the n-propyl derivative in terms of reducing the number of neoplastic cells (relative to 10-n-propyl-8,10-dideazaminopterin, ratio of cells remaining) [times]
CN(Cc1cnc2nc(N)nc(N)c2n1)c1ccc(C(=O)N[C@@H](CCC(=O)O)C(=O)O)cc1 [Methotrexate]	+187%	15			
Nc1nc(N)c2nc(CCc3ccc(C(=O)N[C@@H](CCC(=O)O)C(=O)O)cc3)ccc2n1 [8,10-dideazaminopterin]	+189%	0.75	4000		
10-Propyl-8,10-dideazaminopterin [10-n-propyl-8,10-dideazaminopterin]	+176%	6.0	10,000		
10-ethyl-8,10-dideazaminopterin	+235%	1.5	100	40	100
10-Methyl-8,10-dideazaminopterin	+203%	0.6	1000		
